Residues, ends and D or L forms follow the SMILES beside them. *: point of attachment. Cbz = O=C(OCc1ccccc1)*; OtBu = CC(C)(C)O*
B1: M-CSF: macrophage colony stimulating factor (protein, UniProt P09603 33-554, looked up)
Macrophage colony-stimulating …: EEVSEYCSHMIGSGHLQSLQRLIDSQMETSCQITFEFVDQEQLKDPVCYLKKAFLLVQDIMEDTMRFRDNTPNAIAIVQLQELSLRLKSCFTKDYEEHDKACVRTFYETPLQLLEKVKNVFNETKNLLDKDWNIFSKNCNNSFAECSSQDVVTKPDCNCLYPKAIPSSDPASVSPHQPLAPSMAPVAGLTWEDSEGTEGSSLLPGEQPLHTVDPGSAKQRPPRSTCQSFEPPETPVVKDSTIGGSPQPRPSVGAFNPGMEDILDSAMGTNWVPEEASGEASEIPVPQGTELSPSRPGGGSMQTEPARPSNFLSASSPLPASAKGQQPADVTGTALPRVGPVRPTGQDWNHTPQKTDHPSALLRDPPEPGSPRISSLRPQGLSNPSTLSAQPQLSRSHSSGSVLPLGELEGRRSTRDRRSPAEPEGGPASEGAARPLPRFNSVPLTDTGHERQSEGSFSPQLQESVFHLLVPSVILVLLAVGGLLFYRWRRRSHQEPQRADSPLEQPEGSPLTQDDRQVELPV

Experiments:
[1] = test system: M-CSF-treated human monocytes; assay: Cytokine production in response to various stimuli (ELISA); type: cell-based; details: production induced by the stimulus; means of 4-11 experiments
Protocol: The elutriated human monocytes were incubated at approximately 2×10^6/ml in RPMI 1640 with 25 mM HEPES and 2 mM L-glutamine, supplemented with 5% (v/v) heat inactivated fetal calf serum and 10 units/ml penicillin/streptomycin. […] The cells were then replated on 100 mm Petri dishes and infected for 2 h with a m.o.i. of between 10:1 and 120:1 (in most experiments, 20:1. 40:1 or 80:1 was used) of either AdvIκBα or Adv0, in serum-free RPMI 1640. Cells were then incubated in RPMI 1640 supplemented as above for 48 h to allow for significant over-expression of IκBα, as assessed. During the changes of medium involved, non-adherent cells were discarded, resulting in a further purification of monocyte-derived macrophages.
(§1) In the assays for cytokine production, cells were replated at 5×10^5 cells per well on a 96-well dish, and stimulated as above for 4 or 16 h. Supernatants were analysed for TNFα (27), IL-1β, IL-6 and IL-8 (23), IL-10 (29, 30), IL-1ra and the p55 and p75 soluble TNF receptors (31) by ELISA. The proteosome inhibitor Cbz-Ile-Glu(O-t-Bu)-Ala-leucinal (PSI) was obtained from Calbiochem (Nottingham. England).
LPS is capable of inducing all the cytokines (TNFα, IL-1β, IL-6, IL-8) and inhibitors (IL-10, IL-1ra and the soluble TNF receptors) assayed in this study (Table I; the results are means of 4-11 experiments). The induction of TNFα mRNA by zymosan, has previously been reported to be far weaker than LPS-induced TNFα mRNA in mouse peritoneal macrophages (32), but the TNFα response to zymosan in M-CSF-treated human monocytes was equal to that of LPS (Table 1).

[2] = test system: human monocyte-derived macrophages; assay: Effect of proteosome inhibitor PSI on induced TNFα production; type: cell-based; details: FIG. 14
Protocol: as §1
The independence from NFκB of zymosan induced TNF was further emphasised by studies with the proteosome inhibitor PSI. Inhibition of proteosome function inhibits IκBα degradation thus preventing NFκB nuclear translocation.

THP-1 = assay: Adenovirus infection and integrin induction in THP-1 cell line; type: cell-based, human; details: results not shown
U937 = assay: Adenovirus infection and integrin induction in U937 cell line; type: cell-based, human; details: results not shown
primary human monocytes = assay: Adenoviral infection of primary human monocytes (β-galactosidase expression by FACS); type: cell-based; details: prior cytokine treatment for 72 hours, then β-galactosidase adenovirus at 100 m.o.i.
Protocol: Human monocytes or murine RAW 264.7 were cultured at 5×10^5/ml in RPM1 1640 (Bio Whittaker inc.) supplemented with 5% (v/v) heat inactivated foetal calf serum containing 10 units/ml penicillin/streptomycin and 2 mM glutamine at 37° C. Monocytes were treated with GM-CSF (5U/ml) or M-CSF (1 μg/ml) for 72 hours. Expression of integrins was assayed by indirect immunofluorescence and FACS analysis using monoclonal antibodies to αVβ3 (100 μg/ml LM609, provided by IXSYS Corp. (San Diego Calif. USA), or αVβ5 (undiluted active supernatant kindly provided by J. Gamble Smith). The commercially available monoclonal antibody OX14(100 μg/ml) was used as a negative control.
Following cytokine treatment monocytes were washed in RPM 1640 and resuspended at 5×10^5 cells/ml. The cells were infected with virus at the indicated plaque forming units per cell (multiplicity of infection—m.o.i.). β-galactosidase expression in individual cells was measured by FACS.

Molecule | Anti-inflammatory cytokines: IL-10 [1] [pg/mL] | Anti-inflammatory cytokines: IL-tra [1] [pg/mL] | Anti-inflammatory cytokines: P55 s TNF-R [1] [pg/mL] | Anti-inflammatory cytokines: P75 s TNF-R [1] [pg/mL] | Proinflammatory cytokines: IL-1 [1] [pg/mL] | Proinflammatory cytokines: IL-6 [1] [pg/mL] | Proinflammatory cytokines: IL-8 [1] [pg/mL] | Proinflammatory cytokines: TNFα [1] [pg/mL] | induction of αVβ3 or αVβ5 expression (THP-1) | induction of αVβ3 or αVβ5 expression (U937) | cells expressing the β-galactosidase gene (primary human monocytes) [%] | further results
C[C@H](CCC(=O)O)C[C@H](C)C[C@H](C)C(=O)/C=C(\O)[C@H](C)C[C@H](C)C/C=C/[C@@H](C)[C@@H](O)[C@@H](C)[C@@H](O)C[C@@H]1CC[C@@](C)([C@H]2CC[C@@](C)([C@@H](C)O)O2)O1 [Lomycin, ionomycin] | 0 | 0 | 0 | 0 | 0 | 0 | 900 | 0 |  |  |  | 
CCCCCCCCCCCCCC(=O)O[C@@H]1[C@@H](C)[C@@]2(O)[C@@H](C=C(CO)C[C@]3(O)C(=O)C(C)=C[C@@H]23)[C@@H]2C(C)(C)[C@]12OC(C)=O [PMA] | 0 | 1000 | 0 | 500 | 400 | 300 | 3000 | 6000 |  |  |  | 
CC[C@H](C)[C@H](NC(=O)OCc1ccccc1)C(=O)N[C@@H](CCC(=O)OC(C)(C)C)C(=O)N[C@@H](C)C(=O)N[C@H](C=O)CC(C)C [PSI, Cbz-Ile-Glu(O-t-Bu)-Ala-leucinal] (Cbz-IE(OtBu)AL-aldehyde) |  |  |  |  |  |  |  |  |  |  |  | effect on LPS induced TNF production ([2]; LPS): very effective in blocking; effect on zymosan-induced TNF production ([2]; zymosan): did not affect
GM-CSF: granulocyte-macrophage colony stimulating factor |  |  |  |  |  |  |  |  | neither cytokine was able to induce | neither cytokine was able to induce | 52 | 
TNFα | 0 |  |  |  | 200 | 2000 |  |  |  |  |  | 
B1 |  |  |  |  |  |  |  |  | neither cytokine was able to induce | neither cytokine was able to induce | 90 | 

Source: patent US20020177572A1, “Viral infection of cells” (priority 1997, published 2002)
